{"source": "patent US7138361B2", "about": "“Herbicidal heterocycles” (E. I. du Pont de Nemours and Company, priority 2000, dated 2006)", "assay_type_in_all_cases": "in vivo", "key": {"[1]": {"test_system": "rice (Oryza saliva)", "test": "Test C flooded paddy test", "conditions": "for Rice plant response rating: Flooded Paddy, scale 0 to 100, 0 no effect, 100 complete control; for Plant response rating, Rice: flooded paddy test, scale 0 to 100 (0 no effect, 100 complete control)", "procedure,_shortened": "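Flooded paddy, 2-leaf stage at treatment. Readout: visual % control vs untreated, 0–100, at 12–14 d in greenhouse.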"}, "[2]": {"test_system": "Sunflower", "test": "Test C preemergence", "conditions": "visual evaluation after 12 to 14 days"}, "[3]": {"test_system": "bermudagrass (Cynodon dactylon)", "test": "Test C postemergence", "description": "(§1) Seeds of plant species selected from bermudagrass (Cynodon dactylon), Surinam grass (Brachiaria decumbens), cocklebur (Xanthium strumarium), corn (Zea mays), crabgrass (Digitaria sanguinalis), woolly cupgrass (Eriochloa villosa), giant foxtail (Setaria faberii), goosegrass (Eleusine indica), johnsongrass (Sorghum halepense), kochia (Kochia scoparia), lambsquarters (Chenopodium album), morningglory (Ipomoea hederacea), yellow nutsedge (Cyperus esculentus), pigweed (Amaranthus retroflexus), common ragweed (Ambrosia elatior), soybean (Glycine max) and velvetleaf (Abutilon theophrasti) were planted and treated preemergence with test chemicals formulated in a non-phytotoxic solvent mixture which included a surfactant.\n(§2) At the same time, plants selected from these crop and weed species and also winter barley (Hordeum vulgare), blackgrass (Alopecurus myosuroides), canary grass (Phalaris minor), chickweed (Stellaria media), downy brome (Bromus tectorum), green foxtail (Setaria viridis), Italian ryegrass (Lolium multiflorum), wheat (Triticum aestivum), wild oat (Avena fatua) and windgrass (Apera spica-venti) were treated with postemergence applications of some of the test chemicals formulated in the same manner. Plants ranged in height from 2 to 18 cm (1- to 4-leaf stage) for postemergence treatments. Plant species in the flooded paddy test consisted of rice (Oryza saliva), smallflower flatsedge (Cyperus difformis), duck salad (Heteranthera limosa) and barnyardgrass (Echinochloa crus-galli) grown to the 2-leaf stage for testing. Treated plants and controls were maintained in a greenhouse for 12 to 14 days, after which time all species were compared to controls and visually evaluated. Plant response ratings, summarized in Table C, are based on a scale of 0 to 100 where 0 is no effect and 100 is complete control. A dash (-) response means no test result."}, "[4]": {"test_system": "corn (Zea mays)", "test": "Test C postemergence", "description": "as §1, §2"}, "[5]": {"test_system": "Surinam grass (Brachiaria decumbens)", "test": "Test C postemergence", "description": "as §1, §2"}, "[6]": {"test_system": "morningglory (Ipomoea hederacea)", "test": "Test C postemergence", "description": "as §1, §2"}, "[7]": {"test_system": "giant foxtail (Setaria faberii)", "test": "Test C postemergence", "description": "as §1, §2"}, "[8]": {"test_system": "goosegrass (Eleusine indica)", "test": "Test C postemergence", "description": "as §1, §2"}, "[9]": {"test_system": "velvetleaf (Abutilon theophrasti)", "test": "Test C postemergence", "description": "as §1, §2"}, "[10]": {"test_system": "chickweed (Stellaria media)", "test": "Test C postemergence", "description": "as §1, §2"}, "[11]": {"test_system": "lambsquarters (Chenopodium album)", "test": "Test C postemergence", "description": "as §1, §2"}, "[12]": {"test_system": "yellow nutsedge (Cyperus esculentus)", "test": "Test C postemergence", "description": "as §1, §2"}, "[13]": {"conditions": "Rate 125 g/ha, scale 0 to 100, 0 no effect, 100 complete control"}, "[14]": {"conditions": "Rate 250 g/ha, scale 0 to 100 (0 no effect, 100 complete control)"}, "[15]": {"conditions": "Rate 500 g/ha, scale 0 to 100 (0 no effect, 100 complete control)"}}}
{"smiles": "CC(C)(C)c1ccn(C2CCN(c3ccc(F)c(Br)c3)C2=O)n1", "note": "(centres unmarked) [Compound 75]", "values": [{"measurement": "Rice plant response rating", "setting": "[1]; Rate 250 g/ha", "value": 30}, {"measurement": "Rice plant response rating", "setting": "[1]; Rate 500 g/ha", "value": 40}, {"measurement": "Plant response rating, Rice", "setting": "[1]; Rate 62 g/ha", "value": 0}, {"measurement": "Plant response rating, Rice", "setting": "[1]; Rate 125 g/ha", "value": 0}, {"measurement": "Plant response rating (0 to 100), Sunflower", "setting": "[2]; Rate 500 g/ha", "value": 50}]}
{"smiles": "CC(C)(C)c1ccn(C2CCN(c3cccc(OC(F)F)c3)C2=O)n1", "note": "(centres unmarked) [Compound 76]", "values": [{"measurement": "Rice plant response rating", "setting": "[1]; Rate 250 g/ha", "value": 80}, {"measurement": "Rice plant response rating", "setting": "[1]; Rate 500 g/ha", "value": 80}, {"measurement": "Plant response rating, Rice", "setting": "[1]; Rate 62 g/ha", "value": 20}, {"measurement": "Plant response rating, Rice", "setting": "[1]; Rate 125 g/ha", "value": 40}, {"measurement": "Plant response rating (0 to 100), Sunflower", "setting": "[2]; Rate 500 g/ha", "value": 30}]}
{"smiles": "COc1cc(OC)cc(N2CCC(n3ccc(C(C)(C)C)n3)C2=O)c1", "note": "(centres unmarked) [Compound 71]", "values": [{"measurement": "Rice plant response rating", "setting": "[1]; Rate 250 g/ha", "value": 0}, {"measurement": "Rice plant response rating", "setting": "[1]; Rate 500 g/ha", "value": 60}, {"measurement": "Plant response rating, Rice", "setting": "[1]; Rate 62 g/ha", "value": 0}, {"measurement": "Plant response rating, Rice", "setting": "[1]; Rate 125 g/ha", "value": 0}, {"measurement": "Plant response rating (0 to 100), Sunflower", "setting": "[2]; Rate 500 g/ha", "value": 20}]}
{"smiles": "CCC(C)c1ccn(C2OCN(c3cccc(OC(F)(F)F)c3)C2=O)n1", "note": "(centres unmarked) [Compound 67]", "values": [{"measurement": "Rice plant response rating", "setting": "[1]; Rate 250 g/ha", "value": 60}, {"measurement": "Rice plant response rating", "setting": "[1]; Rate 500 g/ha", "value": 90}, {"measurement": "Plant response rating, Rice", "setting": "[1]; Rate 62 g/ha", "value": 20}, {"measurement": "Plant response rating, Rice", "setting": "[1]; Rate 125 g/ha", "value": 40}, {"measurement": "Plant response rating (0 to 100), Sunflower", "setting": "[2]; Rate 500 g/ha", "value": 30}]}
{"smiles": "CCC(C)c1ccn(C2SCN(c3cccc(OC(F)(F)F)c3)C2=O)n1", "note": "(centres unmarked) [Compound 40]", "values": [{"measurement": "Rice plant response rating", "setting": "[1]; Rate 250 g/ha", "value": 70}, {"measurement": "Rice plant response rating", "setting": "[1]; Rate 500 g/ha", "value": 90}, {"measurement": "Plant response rating, Rice", "setting": "[1]; Rate 62 g/ha", "value": 20}, {"measurement": "Plant response rating, Rice", "setting": "[1]; Rate 125 g/ha", "value": 40}, {"measurement": "Plant response rating, Bermudagrass", "setting": "[3]; Rate 62 g/ha, scale 0 to 100", "value": 0}, {"measurement": "Plant response rating, Bermudagrass", "setting": "[3]; [13]", "value": 20}, {"measurement": "Plant response rating, Bermudagrass", "setting": "[3]; [14]", "value": 60}, {"measurement": "Plant response rating, Bermudagrass", "setting": "[3]; [15]", "value": 70}, {"measurement": "Plant response rating, Corn", "setting": "[4]; Rate 62 g/ha, scale 0 to 100", "value": 0}, {"measurement": "Plant response rating, Corn", "setting": "[4]; [13]", "value": 0}, {"measurement": "Plant response rating, Corn", "setting": "[4]; [14]", "value": 20}, {"measurement": "Plant response rating, Corn", "setting": "[4]; [15]", "value": 30}, {"measurement": "Plant response rating, Surinam grass", "setting": "[5]; Rate 62 g/ha, scale 0 to 100", "value": 0}, {"measurement": "Plant response rating, Surinam grass", "setting": "[5]; [13]", "value": 0}, {"measurement": "Plant response rating, Surinam grass", "setting": "[5]; [14]", "value": 0}, {"measurement": "Plant response rating, Surinam grass", "setting": "[5]; [15]", "value": 0}, {"measurement": "Plant response rating, Morningglory", "setting": "[6]; Rate 62 g/ha, scale 0 to 100", "value": 0}, {"measurement": "Plant response rating, Morningglory", "setting": "[6]; [13]", "value": 0}, {"measurement": "Plant response rating, Morningglory", "setting": "[6]; [14]", "value": 0}, {"measurement": "Plant response rating, Morningglory", "setting": "[6]; [15]", "value": 0}, {"measurement": "Plant response rating, Foxtail, Giant", "setting": "[7]; Rate 62 g/ha, scale 0 to 100", "value": 0}, {"measurement": "Plant response rating, Foxtail, Giant", "setting": "[7]; [13]", "value": 0}, {"measurement": "Plant response rating, Foxtail, Giant", "setting": "[7]; [14]", "value": 0}, {"measurement": "Plant response rating, Foxtail, Giant", "setting": "[7]; [15]", "value": 0}, {"measurement": "Plant response rating, Goosegrass", "setting": "[8]; Rate 62 g/ha, scale 0 to 100", "value": 0}, {"measurement": "Plant response rating, Goosegrass", "setting": "[8]; [13]", "value": 0}, {"measurement": "Plant response rating, Goosegrass", "setting": "[8]; [14]", "value": 0}, {"measurement": "Plant response rating, Goosegrass", "setting": "[8]; [15]", "value": 20}, {"measurement": "Plant response rating, Velvetleaf", "setting": "[9]; Rate 62 g/ha, scale 0 to 100", "value": 0}, {"measurement": "Plant response rating, Velvetleaf", "setting": "[9]; [13]", "value": 0}, {"measurement": "Plant response rating, Velvetleaf", "setting": "[9]; [14]", "value": 0}, {"measurement": "Plant response rating, Velvetleaf", "setting": "[9]; [15]", "value": 20}, {"measurement": "Plant response rating, Chickweed", "setting": "[10]; Rate 62 g/ha, scale 0 to 100", "value": 0}, {"measurement": "Plant response rating, Chickweed", "setting": "[10]; [13]", "value": 0}, {"measurement": "Plant response rating, Chickweed", "setting": "[10]; [14]", "value": 0}, {"measurement": "Plant response rating, Chickweed", "setting": "[10]; [15]", "value": 0}, {"measurement": "Plant response rating, Lambsquarters", "setting": "[11]; Rate 62 g/ha, scale 0 to 100", "value": 20}, {"measurement": "Plant response rating, Lambsquarters", "setting": "[11]; [13]", "value": 40}, {"measurement": "Plant response rating, Lambsquarters", "setting": "[11]; [14]", "value": 50}, {"measurement": "Plant response rating, Lambsquarters", "setting": "[11]; [15]", "value": 70}, {"measurement": "Plant response rating, Nutsedge", "setting": "[12]; Rate 62 g/ha, scale 0 to 100", "value": 0}, {"measurement": "Plant response rating, Nutsedge", "setting": "[12]; [13]", "value": 0}, {"measurement": "Plant response rating, Nutsedge", "setting": "[12]; [14]", "value": 0}, {"measurement": "Plant response rating, Nutsedge", "setting": "[12]; [15]", "value": 20}, {"measurement": "Plant response rating (0 to 100), Sunflower", "setting": "[2]; Rate 250 g/ha", "value": 30}]}
{"smiles": "CC(C)c1ccn(C2SCN(c3cccc(OC(F)F)c3)C2=O)n1", "note": "(centres unmarked) [Compound 44]", "values": [{"measurement": "Rice plant response rating", "setting": "[1]; Rate 250 g/ha", "value": 90}, {"measurement": "Rice plant response rating", "setting": "[1]; Rate 500 g/ha", "value": 90}, {"measurement": "Plant response rating, Rice", "setting": "[1]; Rate 62 g/ha", "value": 80}, {"measurement": "Plant response rating, Rice", "setting": "[1]; Rate 125 g/ha", "value": 80}, {"measurement": "Plant response rating (0 to 100), Sunflower", "setting": "[2]; Rate 250 g/ha", "value": 20}]}
{"smiles": "CC1(c2ccn(C3SCN(c4cccc(C(F)(F)F)c4)C3=O)n2)CC1", "note": "(centres unmarked) [Compound 64]", "values": [{"measurement": "Rice plant response rating", "setting": "[1]; Rate 250 g/ha", "value": 80}, {"measurement": "Rice plant response rating", "setting": "[1]; Rate 500 g/ha", "value": 90}, {"measurement": "Plant response rating, Rice", "setting": "[1]; Rate 62 g/ha", "value": 0}, {"measurement": "Plant response rating, Rice", "setting": "[1]; Rate 125 g/ha", "value": 20}, {"measurement": "Plant response rating (0 to 100), Sunflower", "setting": "[2]; Rate 500 g/ha", "value": 60}]}
{"smiles": "CC1(c2ccn(C3SCN(c4cccc(OC(F)(F)F)c4)C3=O)n2)CC1", "note": "(centres unmarked) [Compound 63]", "values": [{"measurement": "Rice plant response rating", "setting": "[1]; Rate 250 g/ha", "value": 40}, {"measurement": "Rice plant response rating", "setting": "[1]; Rate 500 g/ha", "value": 40}, {"measurement": "Plant response rating, Rice", "setting": "[1]; Rate 62 g/ha", "value": 0}, {"measurement": "Plant response rating, Rice", "setting": "[1]; Rate 125 g/ha", "value": 20}, {"measurement": "Plant response rating (0 to 100), Sunflower", "setting": "[2]; Rate 500 g/ha", "value": 60}]}
